target: T1, GSNOR (Homo sapiens, UniProt P11766); assay: GSNOR assay (inhibition of GSNOR activity, NADH absorbance at 340 nm); format: biochemical; conditions: assay of Example 24; 0.240 mM GSNO, 0.300 mM NADH, pH 7.4, 25° C.; read-out: IC50 (GSNOR inhibitor activity)
T1 construct: made in house; host or cells: E. coli (arabinose-induced)
Method: Various compounds were tested in vitro for their ability to inhibit GSNOR activity. GSNOR expression and purification is described in Biochemistry 2000, 39, 10720-10729.
GSNOR Fermentation: Pre-cultures were grown from stabs of a GSNOR glycerol stock in 2XYT media containing 100 ug/ml ampicillin after an overnight incubation at 37° C. Cells were then added to fresh 2XYT (4 L) containing ampicillin and grown to an OD (A600) of 0.6-0.9 at 37° C. before induction. GSNOR expression was induced with 0.1% arabinose in an overnight incubation at 20° C.
GSNOR Purification: E. coli cell paste was lysed by nitrogen cavitation and the clarified lysate purified by Ni affinity chromatography on an AKTA FPLC (Amersham Pharmacia). The column was eluted in 20 mM Tris pH 8.0/250 mM NaCl with a 0-500 mM imidazole gradient. Eluted GSNOR fractions containing the Smt-GSNOR fusion were digested overnight with Ulp-1 at 4° C. to remove the affinity tag then re-run on the Ni column under the same conditions. GSNOR was recovered in the flowthrough fraction and for crystallography is further purified by Q-Sepharose and Heparin flowthrough chromatography in 20 mM Tris pH 8.0, 1 mM DTT, 10 uM ZnSO4.
GSNOR Assay: GSNO and Enzyme/NADH Solutions are made up fresh each day. The Solutions are filtered and allowed to warm to room temperature. GSNO Solution: 100 mM NaPO4 (pH 7.4), 0.480 mM GSNO. 396 μL of GSNO Solution is added to a cuvette followed by 8 μL of test compound in DMSO (or DMSO only for full reaction control) and mixed with the pipette tip. Compounds to be tested are made up at a stock concentration of 10 mM in 100% DMSO. 2 fold serial dilutions are done in 100% DMSO. 8 μL of each dilution are added to an assay so that the final concentration of DMSO in the assay is 1%. The concentrations of compounds tested range from 100 to 0.003 μM. Enzyme/NADH Solution: 100 mM NaPO4 (pH 7.4), 0.600 mM NADH, 1.0 μg/mL GSNO Reductase. 396 μL of the Enzyme/NADH Solution is added to the cuvette to start the reaction. The cuvette is placed in the Cary 3E UV/Visible Spectrophotometer and the change in 340 nm absorbance/min at 25° C. is recorded for 3 minutes. The assays are done in triplicate for each compound concentration. IC50's for each compound are calculated using the standard curve analysis in the Enzyme Kinetics Module of SigmaPlot.
Final assay conditions: 100 mM NaPO4, pH 7.4, 0.240 mM GSNO, 0.300 mM NADH, 0.5 μg/mL GSNO Reductase and 1% DMSO. Final volume: 800 μL/cuvette.

T1 sequence (P11766 whole entry): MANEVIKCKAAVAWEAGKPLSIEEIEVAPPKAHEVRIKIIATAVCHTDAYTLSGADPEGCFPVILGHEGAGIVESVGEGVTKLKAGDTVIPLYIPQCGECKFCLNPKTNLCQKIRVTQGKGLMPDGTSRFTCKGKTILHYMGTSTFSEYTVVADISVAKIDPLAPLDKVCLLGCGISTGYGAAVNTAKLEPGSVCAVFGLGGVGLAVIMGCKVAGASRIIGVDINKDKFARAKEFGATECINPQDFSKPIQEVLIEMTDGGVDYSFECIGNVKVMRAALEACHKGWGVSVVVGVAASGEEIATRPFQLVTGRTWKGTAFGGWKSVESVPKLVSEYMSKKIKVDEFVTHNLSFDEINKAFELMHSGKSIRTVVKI

`O=C(O)c1ccc(-c2c(C(F)F)oc3cc(O)ccc3c2=O)cc1` [Example 1, 4-(2-(difluoromethyl)-7-hydroxy-4-oxo-4H-chromen-3-yl)benzoic acid] and `CC(C)c1oc2cc(O)ccc2c(=O)c1-c1ccc(C(=O)O)cc1` [Example 3, 4-(7-hydroxy-2-isopropyl-4-oxo-4H-chromen-3-yl)benzoic acid] cannot be ordered by IC50: less than 100 nM for the first, less than 500 nM for the second.

`COCc1oc2cc(O)ccc2c(=O)c1-c1ccc(C(=O)O)cc1` [Example 2, 4-(7-hydroxy-2-(methoxymethyl)-4-oxo-4H-chromen-3-yl)benzoic acid] and `Cc1oc2cc(O)ccc2c(=O)c1-c1ccc(C(=O)O)cc1` [Example 5, 4-(7-hydroxy-2-methyl-4-oxo-4H-chromen-3-yl)benzoic acid] cannot be ordered by IC50: less than 500 nM for the first, less than 500 nM for the second.

`O=C(O)c1ccc(-c2c(Cc3ccccc3)oc3cc(O)ccc3c2=O)cc1` [Example 6, 4-(2-benzyl-7-hydroxy-4-oxo-4H-chromen-3-yl)benzoic acid] and `O=C(O)c1ccc(-c2c(C(F)(F)F)oc3cc(O)ccc3c2=O)cc1` [Example 10, 4-(7-hydroxy-4-oxo-2-(trifluoromethyl)-4H-chromen-3-yl)benzoic acid] cannot be ordered by IC50: less than 500 nM for the first, less than 100 nM for the second.

`O=C(O)c1ccc(-c2c(C(F)(F)F)oc3cc(O)c(F)cc3c2=O)cc1` [Example 13, 4-(6-fluoro-7-hydroxy-4-oxo-2-(trifluoromethyl)-4H-chromen-3-yl)benzoic acid] and `O=C(O)c1ccc(-c2c(C(F)(F)F)oc3cc(O)ccc3c2=O)cc1F` [Example 14, 2-fluoro-4-(7-hydroxy-4-oxo-2-(trifluoromethyl)-4H-chromen-3-yl)benzoic acid] cannot be ordered by IC50: less than 500 nM for the first, less than 100 nM for the second.

`O=C(O)c1ccc(-c2c(C(F)(F)F)oc3cc(O)ccc3c2=O)c(Cl)c1` [Example 15, 3-chloro-4-(7-hydroxy-4-oxo-2-(trifluoromethyl)-4H-chromen-3-yl)benzoic acid] and `COc1cc(C(=O)O)ccc1-c1c(C(F)(F)F)oc2cc(O)ccc2c1=O` [Example 20, 4-(7-hydroxy-4-oxo-2-(trifluoromethyl)-4H-chromen-3-yl)-3-methoxybenzoic acid] cannot be ordered by IC50: less than 100 nM for the first, less than 100 nM for the second.

`CC(F)(F)c1oc2cc(O)ccc2c(=O)c1-c1ccc(C(=O)O)cc1` [Example 16, 4-(2-(1,1-difluoroethyl)-7-hydroxy-4-oxo-4H-chromen-3-yl)benzoic acid] and `CCC(F)(F)c1oc2cc(O)ccc2c(=O)c1-c1ccc(C(=O)O)cc1` [Example 19, 4-(2-(1,1-difluoropropyl)-7-hydroxy-4-oxo-4H-chromen-3-yl)benzoic acid] cannot be ordered by IC50: less than 100 nM for the first, less than 500 nM for the second.

In the case of `O=C(O)c1ccc(-c2c(C(F)(F)F)oc3cc(O)ccc3c2=O)cc1Cl` [Example 18, 2-chloro-4-(7-hydroxy-4-oxo-2-(trifluoromethyl)-4H-chromen-3-yl)benzoic acid], the IC50 is reported as less than 100 nM.

same assay, conditions: method described in Example 24; comparative example; read-out: IC50 (GSNOR inhibitor activity)

For `O=C(O)c1ccc(-c2coc3cc(O)ccc3c2=O)cc1` [Example 22, 4-(7-hydroxy-4-oxo-4H-chromen-3-yl)benzoic acid, reference compound], the IC50 was 135 nM.

system: not listed separately; assay: Mouse pharmacokinetic (PK) study; format: in vivo; conditions: plasma, male BALB/c mice, 10 mg/kg PO vs 2 mg/kg IV, single dose, based on area under the curve
Excerpt: The mouse is used to determine the pharmacokinetics of GSNOR inhibitors. This species is widely used to assess the bioavailability of compounds by administering both oral (PO) and intravenous (IV) test articles. Efficacy of the GSNOR inhibitors can be compared by assessing plasma exposure in male BALB/c mice either via IV or PO administration at the times of peak activity.
The GSNOR inhibitor Compound 10 was reconstituted in a phosphate buffered saline (PBS)/10% Solutol (HS 15) clear solution resulting in a concentration of 0.2 mg/mL and administered to mice (2 mg/kg) as a single IV dose. Animals were dosed via the lateral tail vein. […] The plasma was transferred into labeled polypropylene tubes and frozen at −70° C. until analyzed by LC/MS/MS.
The GSNOR inhibitor Compound 10 was reconstituted in 40% Propylene Glycol/40% Propylene Carbonate/20% of a 5% Sucrose clear solution resulting in a concentration of 2 mg/mL and administered to mice (10 mg/kg) as a single oral dose via gavage. […] The plasma was transferred into labeled polypropylene tubes and frozen at −70° C. until analyzed by LC/MS/MS.
Plasma samples at each timepoint were analyzed using a LC-MS/MS with a lower limit of quantification (LLOQ) of 1 ng/mL. Plasma was analyzed to determine the amount of the GSNOR inhibitor in each sample and regression curves were generated for each GSNOR inhibitor in the relevant matrixes. […]

`O=C(O)c1ccc(-c2c(C(F)(F)F)oc3cc(O)ccc3c2=O)cc1` [Example 10, 4-(7-hydroxy-4-oxo-2-(trifluoromethyl)-4H-chromen-3-yl)benzoic acid] showed a bioavailability greater than 17%.
